How the values were obtained:
cyclooxygenase-2 (COX2) = experiment: COX2 mRNA and protein in lung tissues of mice with lung cancer; type: in vivo, mouse; settings: lung tissues of KP mice, 10 nmol daily by gavage for one month
Text: Methods for animal experiment: the mouse model of primary lung cancer was KrasLSL-G12Dp53fl/fl (KP).
Mice were weighed and assigned to the NC group and HQi-sRNA-2 group randomly. The NC group was the negative control, in which a sphingosine(d18:1)-NC-sRNA herbal medicine delivery system was constructed from NC-sRNA. The HQi-sRNA-2 group was the experimental group, in which a sphingosine(d18:1)-HQi-sRNA-2 herbal medicine delivery system was constructed from HQi-sRNA-2.
(§1) The herbal medicine delivery system was constructed by heating and mixing 10 nmol of sRNA, 100 ug of sphingosine(d18:1) and 300 ul of sterile enzyme-free water in a water bath at 90° C. for 15 minutes.
(§2) Each mouse with a uniform body weight was dosed by gavage. Each mouse was given 10 nmol of HQi-sRNA-2 mimic daily by gavage for one month.
RNA and protein were extracted from the right lung of all mice.
The relative amount of COX-2 mRNA in the RNA in Method 1 and Method 2 was measured by RT-PCR and QPCR technologies.
The relative amount of COX-2 protein in the protein in Method 1 and Method 2 was measured by western blot technology.

[1] = Body weight of mice with primary lung cancer; type: in vivo, mouse; settings: KP mice, 10 nmol daily by gavage for one month, sphingosine(d18:1) delivery system, vs NC group
Text: The mouse model of primary lung cancer was Kras^LSL-G12Dp53^fl/fl (KP).
Mice were weighed and assigned to the negative control group (NC group) and HQi-sRNA-2 group randomly. The NC group was the negative control, in which a sphingosine(d18:1)-NC-sRNA herbal medicine delivery system was constructed from NC-sRNA. The HQi-sRNA-2 group was the experimental group, in which a sphingosine(d18:1)-HQi-sRNA-2 herbal medicine delivery system was constructed from HQi-sRNA-2.
as §1, §2
The body weight of each mouse was recorded, the curve of body weight over time was plotted, and statistical analysis was performed.

HQi-sRNA-2: small RNA derived from Scutellaria baicalensis, sequence AUGGUUCGAUUCCGGAGAGGG (listed as RNA, chemistry not given here)
mRNA level of COX2 (cyclooxygenase-2 (COX2); RT-PCR and QPCR): significantly down-regulate | protein level of COX2 (cyclooxygenase-2 (COX2); western blot): significantly down-regulate | body weight of mice with primary lung cancer [1]: significantly maintained
